From paper doi:10.1101/2025.07.24.666388, “Small Molecule Activators of Protein Phosphatase 2A Exert Global Stabilising Effects on the Scaffold PR65” (bioRxiv, 2025)

Target: T1, PR65 (PP2A scaffold subunit A) (Homo sapiens, UniProt P30153)
T1 construct: gene PPP2R1A; WT PR65, 15 HEAT repeats (GST tag cleaved); ybbR-tagged PR65 for optical tweezers
Assay: fluorescence polarisation (PR65 titrated into fluorescent ATUX-8385); also nanoDSF shift and optical tweezers
Format: binding

T1 sequence (P30153 2-589): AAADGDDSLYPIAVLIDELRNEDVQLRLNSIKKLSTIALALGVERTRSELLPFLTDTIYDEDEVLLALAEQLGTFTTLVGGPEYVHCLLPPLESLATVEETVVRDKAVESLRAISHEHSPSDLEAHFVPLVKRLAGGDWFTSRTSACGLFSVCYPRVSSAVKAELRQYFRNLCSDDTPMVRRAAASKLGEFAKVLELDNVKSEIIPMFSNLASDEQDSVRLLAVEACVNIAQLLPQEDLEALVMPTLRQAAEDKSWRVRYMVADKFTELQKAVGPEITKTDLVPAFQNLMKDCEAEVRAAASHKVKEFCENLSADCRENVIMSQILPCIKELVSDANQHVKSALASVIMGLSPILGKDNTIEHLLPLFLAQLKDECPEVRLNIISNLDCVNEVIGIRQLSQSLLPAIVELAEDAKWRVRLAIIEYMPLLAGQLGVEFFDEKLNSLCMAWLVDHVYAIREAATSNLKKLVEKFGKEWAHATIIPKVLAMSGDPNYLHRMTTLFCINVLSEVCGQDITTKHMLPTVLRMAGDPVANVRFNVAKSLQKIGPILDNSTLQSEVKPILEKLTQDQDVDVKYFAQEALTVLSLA

Kd: 4.7 ± 1.1 µM
Compound: O=S(=O)(NC1CNCC(n2c3ccc(F)cc3c3cc(F)ccc32)C1O)c1ccc(OC(F)(F)F)cc1 (stereo not shown) [ATUX-8385]
